Test results published in US10669290B2, “Beta-lactamase inhibitors” (priority 2012, dated 2020).

What was measured:
Format in all cases: cell-based
E. coli ESBL4 CTX-M-15 = experiment: Broth microdilution MIC, E. coli ESBL4; conditions: Escherichia coli, ESBL4CTXM15; fixed ceftazidime 4 μg/mL, CAMHB, 16-20 hours 37° C.; read-out: MIC of exemplary compounds in presence of fixed β-lactams, Fixed CAZ, E. coli ESBL4 CTX-M-15
Source text: (§1) To determine the ability of test compounds to potentiate the inhibition of the growth of bacterial strains that produce beta-lactamase enzymes, classic cell based broth microdilution MIC assays were employed. Six bacteria strains producing beta-lactamase enzymes were used: E. coli expressing the Class A Extended Spectrum Beta-Lactamase (ESBL) CTX-M-15, E. cloacae expressing the Class C P99, K. pneumoniae expressing the Class A carbapenemase KPC-2, P. aeruginosa expressing the Class B carbapenemase VIM-2, K. pneumoniae expressing the class A carbapenemase KPC-2 and the class B carbapenemase VIM-4, and S. aureus producing the Class A penicillinase PC-1. The assay was conducted in Cation Adjusted Mueller Hinton Broth (CAMHB, BD #212322, BD Diagnostic Systems, Sparks, Md.). Bacteria strains were grown for 3-5 hours in CAMBH broth. Test compounds were added to a microtiter plate in 2-fold serial dilutions in CAMHB in a final concentration range of 32 μg/mL to 0.25 μg/ml. An overlay of CAMHB containing a Beta-lactam was added to the compounds at a final static concentration of 4 μg/ml. […] In addition to the titration of test compounds the MICs of a panel of control beta-lactams is also tested to ensure the strains are behaving consistently from test to test. Once the test compound and antibiotics are added the plates can be inoculated according to CLSI broth microdilution method. After inoculation the plates are incubated for 16-20 hours at 37° C. then the Minimal Inhibitory Concentration (MIC) of the test compound is determined visually.
(§2) Using the methodology described above in EXAMPLE III, exemplary compounds for Formula I or Formula Ia were evaluated for their ability to inhibit the growth of β-lactamase producing bacteria in the presence of a β-lactam antibiotic.

E. cl 144200 p99 AmpC = experiment: Broth microdilution MIC, E. cloacae 144200; conditions: Enterobacter cloacae; fixed ceftazidime 4 μg/mL, CAMHB, 16-20 hours 37° C.; read-out: MIC of exemplary compounds in presence of fixed β-lactams, Fixed CAZ, E. cl 144200 p99 AmpC
Source text: as §1, §2

K.P. 156319 KPC-3 = experiment: Broth microdilution MIC, K. pneumoniae 156319; conditions: Klebsiella pneumoniae; fixed meropenem 4 μg/mL, CAMHB, 16-20 hours 37° C.; read-out: MIC of exemplary compounds in presence of fixed β-lactams, Fixed Mero, K.P. 156319 KPC-3
P. aerug. Ps296 VIM-2 = experiment: Broth microdilution MIC, P. aeruginosa Ps296; conditions: Pseudomonas aeruginosa; fixed meropenem 4 μg/mL, CAMHB, 16-20 hours 37° C.; read-out: MIC of exemplary compounds in presence of fixed β-lactams, Fixed Mero, P. aerug. Ps296 VIM-2
Source text: as §1, §2

K.P. A-1797 KPC-2 VIM-4 = experiment: Broth microdilution MIC, K. pneumoniae A-1797; conditions: Klebsiella pneumoniae; fixed meropenem 4 μg/mL, CAMHB, 16-20 hours 37° C.; read-out: MIC of exemplary compounds in presence of fixed β-lactams, Fixed Mero, K.P. A-1797 KPC-2 VIM-4
Source text: as §1, §2

S. aureus MSSA-7 PC-1 = experiment: Broth microdilution MIC, S. aureus MSSA-7; conditions: Staphylococcus aureus, fixed piperacillin 4 μg/mL, CAMHB, 16-20 hours 37° C., read-out: MIC of exemplary compounds in presence of fixed β-lactams, Fixed Pip, S. aureus MSSA-7 PC-1
Source text: as §1, §2

Row | Structure (SMILES) | MIC (E. coli ESBL4 CTX-M-15) [µg/mL] | MIC (E. cl 144200 p99 AmpC) [µg/mL] | MIC (K.P. 156319 KPC-3) [µg/mL] | MIC (P. aerug. Ps296 VIM-2) [µg/mL] | MIC (K.P. A-1797 KPC-2 VIM-4) [µg/mL] | MIC (S. aureus MSSA-7 PC-1) [µg/mL]
1 | COC(=O)NCCN[C@H]1CC[C@H](CC(=O)N[C@H]2Cc3cccc(C(=O)O)c3OB2O)CC1 [Example 54, (R)-2-hydroxy-3-(2-(trans-4-(2-(methoxycarbonylamino)ethylamino)cyclohexyl)acetamido)-3,4-dihydro-2H-benzo[e][1,2]oxaborinine-8-carboxylic acid] | < 4 | < 4 | < 4 | < 4 | 8 to 32 | < 4
2 | O=C(C[C@H]1CC[C@H](NCCN(CC2CC2)CC2CC2)CC1)N[C@H]1Cc2cccc(C(=O)O)c2OB1O [Example 75, (R)-3-(2-(trans-4-(2-(bis(cyclopropylmethyl)amino)ethylamino)cyclohexyl)acetamido)-2-hydroxy-3,4-dihydro-2H-benzo[e][1,2]oxaborinine-8-carboxylic acid] | < 4 | < 4 | < 4 | < 4 | < 4 | < 4
3 | C[C@H](N)CNCCN[C@H]1CC[C@H](CC(=O)N[C@H]2Cc3cccc(C(=O)O)c3OB2O)CC1 [Example 62, (R)-3-(2-(trans-4-(2-((S)-2-aminopropylamino)ethylamino)cyclohexyl)acetamido)-2-hydroxy-3,4-dihydro-2H-benzo[e][1,2]oxaborinine-8-carboxylic acid] | < 4 | < 4 | < 4 | 8 to 32 | < 4 | < 4
4 | CC(NC(=O)C1C[C@H](N)[C@@H](N)C1)C(=O)N[C@H]1Cc2cccc(C(=O)O)c2OB1O (stereo partly drawn) [Example 38] | < 4 | < 4 | < 4 | < 4 | < 4 | < 4
5 | O=C(C[C@H]1CC[C@H](NCC2CCNCC2)CC1)N[C@H]1Cc2cccc(C(=O)O)c2OB1O [Example 33, (R)-2-hydroxy-3-(2-(trans-4-(piperidin-4-ylmethylamino)cyclohexyl)acetamido)-3,4-dihydro-2H-benzo[e][1,2]oxaborinine-8-carboxylic acid] | < 4 | < 4 | < 4 | 8 to 32 | 8 to 32 | < 4
6 | NCCNC[C@H]1CC[C@H](CC(=O)N[C@H]2Cc3cccc(C(=O)O)c3OB2O)CC1 [Example 10, (R)-3-(2-(trans-4-((2-aminoethylamino)methyl)cyclohexyl)acetamido)-2-hydroxy-3,4-dihydro-2H-benzo[e][1,2]oxaborinine-8-carboxylic acid] | < 4 | < 4 | < 4 | 8 to 32 | < 4 | < 4
7 | O=C(C[C@H]1CC[C@H](NCCNc2ccccn2)CC1)N[C@H]1Cc2cccc(C(=O)O)c2OB1O [Example 48, (R)-2-hydroxy-3-(2-(trans-4-(2-(pyridin-2-ylamino)ethylamino)cyclohexyl)acetamido)-3,4-dihydro-2H-benzo[e][1,2]oxaborinine-8-carboxylic acid] | < 4 | < 4 | < 4 | 8 to 32 | 8 to 32 | < 4
8 | CCNCCN[C@H]1CC[C@H](CC(=O)N[C@H]2Cc3cccc(C(=O)O)c3OB2O)CC1 [Example 78, (R)-3-(2-(trans-4-(2-(ethylamino)ethylamino)cyclohexyl)acetamido)-2-hydroxy-3,4-dihydro-2H-benzo[e][1,2]oxaborinine-8-carboxylic acid] | < 4 | < 4 | < 4 | < 4 | < 4 | < 4

Continued, values first:

Row | MIC (E. coli ESBL4 CTX-M-15) [µg/mL] | MIC (E. cl 144200 p99 AmpC) [µg/mL] | MIC (K.P. 156319 KPC-3) [µg/mL] | MIC (P. aerug. Ps296 VIM-2) [µg/mL] | MIC (K.P. A-1797 KPC-2 VIM-4) [µg/mL] | MIC (S. aureus MSSA-7 PC-1) [µg/mL] | Structure (SMILES)
9 | < 4 | < 4 | < 4 | 8 to 32 | > 32 | < 4 | O=C(O)CN[C@H]1CC[C@H](CC(=O)N[C@H]2Cc3cccc(C(=O)O)c3OB2O)CC1 [Example 28, (R)-3-(2-(trans-4-(carboxymethylamino)cyclohexyl)acetamido)-2-hydroxy-3,4-dihydro-2H-benzo[e][1,2]oxaborinine-8-carboxylic acid]
10 | < 4 | < 4 | < 4 | < 4 | < 4 | < 4 | N[C@H](CO)CN[C@H]1CC[C@H](CC(=O)N[C@H]2Cc3cccc(C(=O)O)c3OB2O)CC1 [Example 67, (R)-3-(2-(trans-4-((S)-2-amino-3-hydroxypropylamino)cyclohexyl)acetamido)-2-hydroxy-3,4-dihydro-2H-benzol[e][1,2]oxaborinine-8-carboxylic acid]
11 | < 4 | < 4 | < 4 | < 4 | 8 to 32 | 8 to 32 | N[C@@H](C(=O)N[C@H]1Cc2cccc(C(=O)O)c2OB1O)C1CCCCC1 [Example 42, (R)-3-((R)-2-amino-2-cyclohexylacetamido)-2-hydroxy-3,4-dihydro-2H-benzo[e][1,2]oxaborinine-8-carboxylic acid]
12 | < 4 | < 4 | < 4 | < 4 | 8 to 32 | < 4 | NCCNC(=O)N[C@H]1CC[C@H](CC(=O)N[C@H]2Cc3cccc(C(=O)O)c3OB2O)CC1 [Example 59, (R)-3-(2-(trans-4-(3-(2-aminoethyl)ureido)cyclohexyl)acetamido)-2-hydroxy-3,4-dihydro-2H-benzo[e][1,2]oxaborinine-8-carboxylic acid]
13 | < 4 | < 4 | < 4 | 8 to 32 | < 4 | < 4 | NCCC(N)[C@H]1CC[C@H](CC(=O)N[C@H]2Cc3cccc(C(=O)O)c3OB2O)CC1 (stereo partly drawn) [Example 76, (R)-3-(2-(trans-4-(1,3-diaminopropyl)cyclohexyl)acetamido)-2-hydroxy-3,4-dihydro-2H-benzo[e][1,2]oxaborinine-8-carboxylic acid]
14 | < 4 | < 4 | < 4 | < 4 | < 4 | < 4 | C[C@H](N)CN[C@H]1CC[C@H](CC(=O)N[C@H]2Cc3cccc(C(=O)O)c3OB2O)CC1 [Example 53, (R)-3-(2-(trans-4-((S)-2-aminopropylamino)cyclohexyl)acetamido)-2-hydroxy-3,4-dihydro-2H-benzo[e][1,2]oxaborinine-8-carboxylic acid]
15 | < 4 | < 4 | < 4 | < 4 | < 4 | < 4 | N[C@H]1CC[C@H](CC(=O)N[C@H]2Cc3cccc(C(=O)O)c3OB2O)CC1 [Example 6, (R)-3-(2-(trans-4-aminocyclohexyl)acetamido)-2-hydroxy-3,4-dihydro-2H-benzol[e][1,2]oxaborinine-8-carboxylic acid]
16 | < 4 | < 4 | < 4 | < 4 | < 4 | < 4 | NCCCN[C@H]1CC[C@H](CC(=O)N[C@H]2Cc3cccc(C(=O)O)c3OB2O)CC1 [Example 60, (R)-3-(2-(trans-4-(3-aminopropylamino)cyclohexyl)acetamido)-2-hydroxy-3,4-dihydro-2H-benzo[e][1,2]oxaborinine-8-carboxylic acid]
